Article PMC6892276 (European Journal of Pharmaceutical Sciences, 2019)

Columns and labels:
[1] = tested on: MV4-11 (human FLT3-ITD positive AML); parameters: method as in Bavetsias et al., 2012; settings: ref Bavetsias et al., 2012; cited from earlier work
[2] = CLint in mouse liver microsomes; assay type: in vitro ADME; settings: ICR/CD-1, liver microsomes, female, 1 mg/ml, NADPH
Experimental: (§1) All incubations of subcellular fractions and recombinant enzymes were conducted at 37 °C and 800 rpm using a Hamilton Microlab Star liquid handling workstation (Hamilton Robotics (Bonaduz, Switzerland)).
(§2) Prior to initiation of the reaction by the addition of NADPH (final concentration 1 mM), an aliquot was removed from each incubation and quenched in ice cold methanol containing internal standard (referred to as T0). NADPH was subsequently added to this solution for matrix matching. The remaining reaction (with addition of NADPH) was allowed to proceed for 60 min. At 0.5, 5, 15, 30 and 60 min aliquots were sampled and quenched as above. Incubations were conducted in singlicate; control incubations (substituting PBS for NADPH) were conducted simultaneously.
(§3) For the purpose of CLint determination, samples were analysed using an Agilent 1290 Infinity ultra high-performance liquid chromatography (UHPLC) system coupled to an Agilent 6520 Quadrupole Time-of-flight mass spectrometer (Agilent Technologies, Stockport, UK). […]
(§4) In vitro data (parent compound LC-MS response) was fitted to a non-linear single exponential model using the software GraphPad Prism (v6.07, GraphPad Software, Inc., La Jolla, USA) to determine the elimination rate constant (k). CLint in hepatocytes and liver microsomes was calculated using Eqs. […]

[3] = CLint in rat liver microsomes; assay type: in vitro ADME; settings: Sprague Dawley, female, 1 mg/ml, NADPH
Experimental: as §1, §2, §3, §4

[4] = tested on: HCT116 (human colon carcinoma); parameters: method as in Bavetsias et al., 2012; settings: ref Bavetsias et al., 2012; cited from earlier work
[5] = Protein binding in rCYP (Rapid Equilibrium Dialysis); assay type: in vitro ADME; settings: human, control rCYP 100 pmol/ml, dialysis 4 h at 37 °C, read-out: fuCYP (fraction unbound in rCYP)
Experimental: Samples were removed, matrix matched and quenched with methanol containing internal standard; further processing is as described in Section 2.6.
The fraction unbound (fu) in HLM/rCYP was calculated using Eq. (5).(5) fu=1/1+1/PARreceiver/PARdonor−1 where PAR = Peak Area Ratio of analyte/internal standard.

Caco-2 = tested on: Caco-2; parameters: method as in Bavetsias et al., 2012; settings: ref Bavetsias et al., 2012, cited from earlier work
[6] = CLint in minipig liver microsomes; assay type: in vitro ADME; settings: Gottingen, 1 mg/ml, NADPH
Experimental: as §1, §2, §3, §4

[7] = tested on: MOLM-13 (human FLT3-ITD positive AML); parameters: method as in Bavetsias et al., 2012; settings: ref Bavetsias et al., 2012; cited from earlier work
[8] = CLint in cryopreserved rat hepatocyte suspensions; assay type: in vitro ADME; settings: Sprague Dawley, pH 7.4, female
Experimental: (§5) Cells were stored in the vapour phase of liquid nitrogen and thawed as per the supplier's instructions (rapid thawing at 37 °C, followed by centrifugation at 50 ×g for 5 min in thawing medium). Hepatocytes were re-suspended in a small volume of incubation medium (WME buffered with HEPES (final concentration 24 mM) adjusted to pH 7.4). Cell density was estimated using a haemocytometer and light microscope and viability determined according to the trypan blue exclusion method; cells were subsequently diluted to the required concentration in incubation medium. […]
as §3, §4

[9] = CLint in cryopreserved minipig hepatocyte suspensions; assay type: in vitro ADME; settings: Gottingen
Experimental: as §5, §3, §4

[10] = CLint in dog liver microsomes; assay type: in vitro ADME; settings: Beagle, 1 mg/ml, NADPH
Experimental: as §1, §2, §3, §4

CYP2A6 = tested on: CYP2A6; parameters: method as in Bavetsias et al., 2012; settings: ref Bavetsias et al., 2012; read-out: CYP2A6 inhibition IC50; cited from earlier work
CYP3A4 = tested on: CYP3A4; parameters: method as in Bavetsias et al., 2012; settings: ref Bavetsias et al., 2012; read-out: CYP3A4 inhibition IC50; cited from earlier work
[11] = CLint in human liver microsomes; assay type: in vitro ADME; settings: both sexes, mixed sex, 1 mg/ml, NADPH
Experimental: as §1, §2, §3, §4
Unbound CLint (CLint,u) was calculated using Eq. (6).(6) CLint,u=CLint/fu

[12] = CLint in cryopreserved human hepatocyte suspensions; assay type: in vitro ADME; settings: both sexes, pH 7.4, mixed sex
Experimental: as §5, §3, §4

CYP2C9 = tested on: CYP2C9; parameters: method as in Bavetsias et al., 2012; settings: ref Bavetsias et al., 2012; read-out: CYP2C9 inhibition IC50; cited from earlier work
CYP2D6 = tested on: CYP2D6; parameters: method as in Bavetsias et al., 2012; settings: ref Bavetsias et al., 2012; read-out: CYP2D6 inhibition IC50; cited from earlier work

Cc1nn(C)cc1-c1nc2c(N3CCN(Cc4ccc(Cl)cc4)CC3)c(Cl)cnc2[nH]1 [CCT241736, 6-Chloro-7-(4-(4-chlorobenzyl)piperazin-1-yl)-2-(1,3-dimethyl-1Hpyrazol-4-yl)-3H-imidazo[4,5-b] pyridine]
anti-proliferative activity [1]: anti-proliferative activity | microsomal CLint at 1 μM [2]: 53 ± 4.1 µL/min/mg | microsomal CLint at 1 μM [3]: 2.7 ± 1.8 µL/min/mg | anti-proliferative activity [4]: anti-proliferative activity | fraction unbound at 4 h, 1 μM [5]: 0.0094 | efflux (Caco-2; Caco-2): no evidence of efflux | Caco-2 permeability (Caco-2): 1.86e-05 cm/s | microsomal CLint at 1 μM ([6]; female): 5.1 ± 1.1 µL/min/mg | microsomal CLint at 1 μM ([6]; male): 5.5 ± 0.9 µL/min/mg | anti-proliferative activity [7]: anti-proliferative activity | hepatocyte CLint at 1 μM [8]: 10 µL/min/1e6 cells | hepatocyte CLint at 1 μM ([9]; pH 7.4, female): 3.4 µL/min/1e6 cells | hepatocyte CLint at 1 μM ([9]; pH 7.4, male): 7 µL/min/1e6 cells | microsomal CLint at 1 μM ([10]; female): 9.5 ± 2.2 µL/min/mg | microsomal CLint at 1 μM ([10]; male): 7.4 ± 1.4 µL/min/mg | IC50 (CYP2A6): > 10 µM | IC50 (CYP3A4): > 10 µM | microsomal CLint at 1 μM [11]: 7.8 ± 1 µL/min/mg | hepatocyte CLint at 1 μM [12]: < 1 µL/min/1e6 cells | IC50 (CYP2C9): > 10 µM | IC50 (CYP2D6): […]
